Measurements reported in patent US12357603B2, “Acyl sulfonamides for treating cancer” (Bayer Aktiengesellschaft, priority 2019, dated 2025).

Tests used:
[1] = molecular target: Recombinant human GST-tagged Kat6b protein (431-end); assay: Kat6b activity assay (TR-FRET, acetylation of biotinylated Histone-H4-derived peptide); assay type: biochemical; conditions: 30 mins at 22° C., read-out: KAT6B activity assay IC50 [mol/l] (arithmetic mean)
Method: Kat6b inhibitory activities of the compounds described in the present invention were quantified using a Fluorescence Resonance Energy Transfer (TR-FRET) assay which measures acetylation of a synthetic, biotinylated Histone-H4-derived peptide by the enzyme.
In this case 50 nl DMSO were used instead of compounds. […] IC50 values were determined by regression analysis based on a 4 parameter equation (minimum, maximum, ICM, Hill; Y=Max+(Min−Max)/(1+(X/ICso) Hill) using the Screener Software (Genedata).

MDA-MB-436 cells = assay: Proliferation assay MDA-MB-436, negative control cell line (Alamar Blue, 144 h); assay type: cell-based; conditions: Homo sapiens, MDA-MB-436, 144 h, arithmetic mean
In short: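 MDA-MB-436 cells (3000/well, DMEM/Ham's F12 with 2.5% FBS) treated 24 h after plating with compounds at 2.0×10E-5 to 2.0×10E-9 M (9 dilutions, 0.2% DMSO), triplicates, 144 h at 37 °C, 5% CO2. Viability by Alamar Blue, 2 h, fluorescence at 590 nm.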

[2] = tested on: ESR1 transcription (luciferase signal in MVLN cells); assay: Repression of ESR1 transcription, luciferase reporter in MVLN cells; assay type: cell-based; conditions: Homo sapiens, MVLN, inhibition of luciferase signal in MVLN cells; arithmetic mean
In short: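 MVLN cells (constitutive ER, stably carrying a Vitellogenin A2 hormone-responsive element–luciferase reporter) treated in duplicate; luciferase read after 24 h. Cell density checked by Alamar Blue fluorescence (530/590 nm) after 2 h to exclude cell-loss effects.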

[3] = molecular target: Recombinant human His-tagged Kat6a protein (amino acids 194-810) (Homo sapiens (Human), UniProt Q92794); assay: Kat6a activity assay (TR-FRET, acetylation of biotinylated Histone-H4-derived peptide); assay type: biochemical; conditions: 60 mins at 22° C., read-out: KAT6A-DPF/HAT domain IC50 [mol/l] (arithmetic mean)
Sequence of Recombinant human His-tagged Kat6a protein (amino acids 194-810) (Q92794 194-810): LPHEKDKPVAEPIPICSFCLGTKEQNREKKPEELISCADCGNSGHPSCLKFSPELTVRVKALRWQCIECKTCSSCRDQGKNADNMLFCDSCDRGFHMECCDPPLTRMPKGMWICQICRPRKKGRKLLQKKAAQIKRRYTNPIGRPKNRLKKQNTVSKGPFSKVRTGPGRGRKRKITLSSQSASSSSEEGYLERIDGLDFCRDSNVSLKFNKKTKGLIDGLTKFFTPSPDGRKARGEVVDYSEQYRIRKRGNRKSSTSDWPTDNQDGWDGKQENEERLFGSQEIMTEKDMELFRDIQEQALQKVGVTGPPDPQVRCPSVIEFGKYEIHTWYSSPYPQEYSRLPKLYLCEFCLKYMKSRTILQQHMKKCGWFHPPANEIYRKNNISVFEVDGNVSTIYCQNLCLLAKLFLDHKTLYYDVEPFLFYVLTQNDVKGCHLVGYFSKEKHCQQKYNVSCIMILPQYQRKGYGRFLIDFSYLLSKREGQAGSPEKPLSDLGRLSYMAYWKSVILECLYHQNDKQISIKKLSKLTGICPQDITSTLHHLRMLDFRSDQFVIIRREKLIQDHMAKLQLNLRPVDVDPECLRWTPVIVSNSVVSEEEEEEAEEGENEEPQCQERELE
In short: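 Sf9-expressed human His-Kat6a (aa 194-810) incubated 60 min at 22 °C with compounds (0.01-20 μM) in Tris pH 8 buffer containing 220 nM biotinylated H4 peptide (aa 1-24) and 600 nM acetyl-CoA. Acetyl-K8 detected by TR-FRET (665/620 nm ratio); IC50 by four-parameter fit versus DMSO controls.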

ZR-75-1 cells = assay: Proliferation assay ZR-75-1 (Alamar Blue, 144 h); assay type: cell-based; conditions: Homo sapiens, ZR-75-1, 144 h, arithmetic mean, read-out: ZR75-1 proliferation assay, EC50 [M] (arithmetic mean)
In short: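 Cells seeded at 3000/well in RPMI 1640 with 2.5% FBS and treated 24 h later across 2.0×10E-5 to 2.0×10E-9 M (9 dilutions, 0.2% DMSO, triplicate). After 144 h at 37 °C, 5% CO2, viability read by Alamar Blue fluorescence at 590 nm following 2 h reagent incubation.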

SMILES | IC50 [1] | EC50 (MDA-MB-436 cells) | IC50 [2] | IC50 [3] | EC50 (ZR-75-1 cells)
CCN(C)c1ccc2cc(C(=O)NS(=O)(=O)c3ccccc3-c3ccccc3)oc2c1 [Example 1, 6-[Ethyl(methyl)amino]-N-(2-phenylphenyl)sulfonyl-benzofuran-2-carboxamide] | 836 nM | > 20000 nM | 1840 nM | 599 nM | 8.93e-07 M
CCN(C)c1ccc2cc(C(=O)NS(=O)(=O)c3ccccc3)oc2c1 [Example 2, N-(Benzenesulfonyl)-6-[ethyl(methyl)amino]benzofuran-2-carboxamide] | 5700 nM | > 20000 nM | 3500 nM | 4800 nM | 1.08e-05 M
CN(C)c1ccc2cc(C(=O)NS(=O)(=O)c3ccc(-c4ccccc4)cc3)oc2c1 [Example 15, N-([1,1′-biphenyl]-4-sulfonyl)-6-(dimethylamino)-1-benzofuran-2-carboxamide] | 235 nM | – | 5000 nM | 112 nM | 4.28e-06 M
CN(C)c1ccc2cc(C(=O)NS(=O)(=O)c3ccccc3OC(F)(F)F)oc2c1 [Example 31, 6-(Dimethylamino)-N-[2-(trifluoromethoxy)benzene-1-sulfonyl]-1-benzofuran-2-carboxamide] | 59.1 nM | > 20000 nM | – | 53 nM | 8.14e-08 M
Cc1ccccc1S(=O)(=O)NC(=O)c1cc2ccc(N(C)C)cc2o1 [Example 32, 6-(Dimethylamino)-N-(2-methylbenzene-1-sulfonyl)-1-benzofuran-2-carboxamide] | 423 nM | > 20000 nM | – | 224 nM | 3.78e-07 M
CN(C)c1ccc2cc(C(=O)NS(=O)(=O)c3ccccc3C#N)oc2c1 [Example 33, N-(2-Cyanobenzene-1-sulfonyl)-6-(dimethylamino)-1-benzofuran-2-carboxamide] | > 20000 nM | > 20000 nM | – | 2720 nM | 6.26e-06 M
CN(C)c1ccc2cc(C(=O)NS(=O)(=O)c3ccccc3F)oc2c1 [Example 34, 6-(Dimethylamino)-N-(2-fluorobenzene-1-sulfonyl)-1-benzofuran-2-carboxamide] | 504 nM | > 20000 nM | – | 417 nM | 5.78e-07 M
CN(C)c1ccc2cc(C(=O)NS(=O)(=O)c3ccccc3-c3ccccc3)sc2c1 [Example 48, N-([1,1′-Biphenyl]-2-sulfonyl)-6-(dimethylamino)-1-benzothiophene-2-carboxamide] | 450 nM | > 20000 nM | 785 nM | 310 nM | –

These reach a lower IC50 [1]. Values come first.

IC50 [1] | EC50 (MDA-MB-436 cells) | IC50 [2] | IC50 [3] | SMILES | EC50 (ZR-75-1 cells)
56.2 nM | > 20000 nM | 62.5 nM | 71.2 nM | COc1cc(C)ccc1S(=O)(=O)NC(=O)c1cc2ccc(N(C)C)cc2o1 [Example 127, 6-(Dimethylamino)-N-(2-methoxy-4-methylbenzene-1-sulfonyl)-1-benzofuran-2-carboxamide] | –
55.4 nM | – | 209 nM | 48.8 nM | Cc1cc(Cl)c2cccc(S(=O)(=O)NC(=O)c3cc4ccc(N(C)C)cc4o3)c2n1 [Example 83, N-(4-Chloro-2-methylquinoline-8-sulfonyl)-6-(dimethylamino)-1-benzofuran-2-carboxamide] | 1.13e-06 M
24 nM | – | 29.1 nM | 7.91 nM | CC(C)c1ccc(OCC2CC2)c(S(=O)(=O)NC(=O)c2cc3ccc(N(C)C)cc3o2)c1 [Example 177, N-[2-(cyclopropylmethoxy)-5-isopropyl-phenyl]sulfonyl-6-(dimethylamino)benzofuran-2-carboxamide] | 6.97e-08 M
18.2 nM | – | 61.7 nM | 13.3 nM | CN(C)c1cc(F)c2cc(C(=O)NS(=O)(=O)c3ccccc3-c3ccccc3)oc2c1 [Example 12, N-([1,1′-Biphenyl]-2-sulfonyl)-6-(dimethylamino)-4-fluoro-1-benzofuran-2-carboxamide] | 5.72e-08 M
